Experimental data published in patent publication US12168003B2, “Selective inhibition of T follicular helper cells for treatment of autoimmune disorders” (priority 2019, dated 2024).

How the values were obtained:
TH2 cells and Tregs = experiment: A. fumigatus repeat sensitization airway disease model; type: in vivo, mouse
Description: A. fumigatus Fresenius (ATCC 13073) was grown for 7 days on potato dextrose agar plates (Thermo Scientific) at 37° C. Conidia were harvested by agitation in a flask with sterile PBS+0.1% Tween-20 and filtered through a 40 μm nylon mesh. Mice were intratracheally sensitized with 1.8×10^6 conidia in 50 μL of PBS on days 0, 7, and 11. On day 0 through 17 mice were treated daily with i.p. 25 mg/kg 4EGI-1 or vehicle. On day 18, mice were euthanized and lungs were collected along with mediastinal lymph node (MedLN) and blood. Serum was obtained and stored as described above.
Spleens, draining lymph nodes, and brains were dissociated with the plunger-end of a syringe and passed through a 70 μm nylon filter. Splenocytes were subject to RBC lysis with ACK (Ammonium-Chloride-Potassium). Ears were subject to mechanical dissociation with scissors prior to incubation in 1 mL PBS in a 48-well plate with 100 μg/mL Liberase TL and 20 μg/mL DNase I for 1.5 hours at 37° C. Following incubation, cells were further dissociated by passing through a syringe, quenched with PBS+2% FCS, and filtered through a 70 μm nylon filter. Lungs were mechanically dissociated with a razor blade and incubated in a 6 cm dish with 5 mLs RPMI containing 250 μg/mL collagenase, 50 μg/mL Liberase TL, 1 mg/mL hyaluronidase, and 200 μg/mL DNase I for 30 minutes. Following incubation, cells quenched with PBS+2% FCS, and filtered through a 70 μm nylon filter. Ear and lung cells were subject to lymphocyte isolation using a gradient (Lymphocyte Separation Medium; Cellgro). Vertebral columns were flushed with PBS through a 19-gauge needle to remove intact spinal cords. Spinal cords were subject to mechanical dissociation with scissors and incubation in 1 mL PBS with 200 μg/mL DNase I and 50 μg/mL Liberase TL for 30 minutes at 37° C. Following incubation, cells were quenched with PBS+2% FCS and filtered through a 70 μm nylon filter.
(§1) For quantification of OVA-specific IgG1, high-binding 96-well plates (Costar) were coated with 10 μg/mL OVA protein. For S. aureus-specific IgG1, plates were coated with heat-killed S. aureus (heat-killed at 80° C. for 30 min). For total IgE, plates were coated with 2 μg/mL rat anti-mouse IgE (Southern Biotech). Following overnight incubation at 4° C., plates were blocked with 1% BSA for 30 min at 37° C. After blocking, serum (diluted 1/20 initially then 1/2 down the plate) was incubated at 37° C. for 2 hours, plates were washed 3 times in PBS and then incubated with 1:1000 anti-mouse IgG1-HRP (Southern Biotech) or anti-mouse IgE-HRP (Southern Biotech) for 1 hour at 37° C. Plates were washed 3 times in PBS and incubated with TMB substrate. Following development, TMB Stop Solution (BioLegend®) was added and plates were read at […].
Lungs fixed in 4% PFA (ThermoFisher) and spinal cords fixed in 10% buffered formalin (Leica) were incubated overnight and moved to 70% ethanol prior to ethanol dehydration, xylene incubation, and paraffin embedding. Five-micron thick sections of lung were stained with hematoxylin and eosin (H&E), Periodic Acid-Schiff (PAS), or Masson's Trichrome Stain (MTS). Spinal cords were stained with H&E or Luxol fast blue and hematoxylin (LFB-H). Staining was visualized with an EVOS FLc microscope.

pre-existing TFH cells = experiment: OVA/Alum immunization, 4EGI-1 after formation of TFH cells; type: in vivo, mouse
Description: OVA protein (Sigma A5503) was diluted in PBS and then in 20 mg/mL Imject Alum (ThermoFisher 77161) and mixed at room temperature for 30 minutes prior to i.p. injection of 100 μg OVA in 200 μL. When stated, mice were treated i.p. daily from day 0 to 6 or day 0 to 13 (just for TFR analysis) following OVA/Alum immunization with 25 mg/kg 4EGI-1 (MedChemExpress) or from day 7 to 13 following OVA/Alum immunization with 50 mg/kg or 75 mg/kg 4EGI-1. Vehicle control mice were administered 6 μL DMSO in 194 μL PBS i.p.
PVDF-coated 96-well plates (Millipore) were activated with methanol for 2 minutes, washed with PBS, and coated with 4 μg/mL OVA overnight at 4° C. Plates were blocked with 1% BSA for 2 hours at 37° C. prior to incubation with 1×10^7 splenocytes in RPMI containing 2% Ultra-low IgG FCS, 55 μM 2ME, and 100 U/mL penicillin and 100 μg/mL streptomycin in the top well. Cells were diluted by 1/2 each row going down the plate and incubated immobile overnight at 37° C. Plates were washed with water+0.05% Tween 20 for 5 min prior to 3 washes in PBS+0.05% Tween-20 for 10 minutes. Plates were incubated with 1:1000 HRP-coupled goat anti-mouse IgG1 antibody (Southern Biotech) in PBS+0.05% Tween 20 for 2 h prior to 3 washes in PBS+0.05% Tween 20 and incubation in tetramethylbenzidine (TMB) ELISA substrate buffer (ThermoFisher). Plates were washed once in distilled deionized water and spots were manually enumerated and antibody-secreting cells (ASC) per million splenocytes was determined.
as §1

[1] = 25 mg/kg daily i.p., lung sections
[2] = mediastinal lymph nodes, day 18
[3] = 75 mg/kg, day 7 to 13 after OVA/Alum
[4] = 4EGI-1 day 7 to 13 after OVA/Alum

With `O=C(O)C(Cc1ccccc1[N+](=O)[O-])=NNc1nc(-c2ccc(Cl)c(Cl)c2)cs1` (mixture of isomers) [4EGI-1] the “levels of pulmonary TH2 cells (GATA3+ or IL-13+)” value (TH2 cells and Tregs; 25 mg/kg daily i.p., day 18) was “no effect”, the “levels of pulmonary Tregs (Foxp3+)” value (TH2 cells and Tregs; 25 mg/kg daily i.p., day 18) was “no effect” and the “levels of pulmonary eosinophils” value (TH2 cells and Tregs; 25 mg/kg daily i.p., day 18) was “no effect”. For the same compound, the airway inflammation (TH2 cells and Tregs; [1]) was “no effect”, the mucin production (TH2 cells and Tregs; [1]) was “no effect” and the “formation of GC B cells in draining lymph nodes” value (TH2 cells and Tregs; [2]) was “strongly reduced”. For the same compound, the “formation of TFH cells in draining lymph nodes” value (TH2 cells and Tregs; [2]) was “strongly reduced”, the “secretion of class-switched immunoglobulins” value (TH2 cells and Tregs; serum total IgE, day 18) was “strongly reduced” and the “reduction of CD4+ T cell protein synthesis (SUnSET)” value (pre-existing TFH cells; [3]) was “approximately half”. The “total number of CD4+ T cells in spleen” value (pre-existing TFH cells; [3]) was “without significantly reducing”, the “reduction of levels of GC B cells” value (pre-existing TFH cells; [4]) was 3 fold and the “reduction of levels of OVA-specific IgG1 ASC cells” value (pre-existing TFH cells; [4]) was 3 fold. The “reduction of levels of pre-existing splenic CD4+ TFH cells” value (pre-existing TFH cells; [4]) was 3 fold and the “serum OVA-specific IgG1 antibody” value (pre-existing TFH cells; [4]) was “moderately reduced”.
